# Source: US20230226092A1, “CANCER […] ON G[…]” (NuCana plc, priority 2015, published 2023)
# “Also recorded” adds a separate entry of the source.
# Key:
# [1] = test system: CD34^+/CD123^+ leukaemic stem cells; assay: Quantification of CD34+/CD123+ sub-populations in primary AML cells; format: cell-based, human
# Description: Putative leukaemic stem cells were identified by dual expression of CD34 and CD123. The relative sensitivity of these cells to the effects of gemcitabine and NUC-1031 were assessed as a function of the percentage of these cells that remained viable following exposure to molar equivalents of each agent.
# [2] = test system: Lin^-/CD34^+/CD38^-/CD123^+ CSCs of KG1a cells; assay: Immunophenotypic identification of the leukaemic stem cell compartment in KG1a; format: cell-based, human; conditions: 72 h, sub-micromolar concentrations
# Description: KG1a cells were cultured for 72 hours in the presence of a wide range of concentrations of each nucleoside analogue and their respective ProTides. Cells were then harvested and labelled with a cocktail of anti-lineage antibodies (PE-cy7), anti-CD34 (FITC), anti-CD38 (PE) and anti-CD123 (PERCP cy5). The sub-population expressing a leukaemic stem cell (LSC) phenotype were subsequently identified and were expressed as a percentage of all viable cells left in the culture. The percentages of stem cells remaining were then plotted on a dose-response graph and the effects of the ProTides were compared with the parental nucleoside.
# KG1a cells were cultured for 72 hours in the presence of a wide range of concentrations of each compound assayed. Cells were then harvested and labelled with a cocktail of anti-lineage antibodies (PE-cy7), anti-CD34 (FITC), anti-CD38 (PE) and anti-CD123 (PERCP cy5). The sub-population expressing a CSC phenotype were subsequently identified and were expressed as a percentage of all viable cells left in the culture. The percentages of CSCs remaining were then plotted on a dose-response graph and the effects of the NUC-1031 (and its purified isomers) were compared with gemcitabline.
# [3] = ProGem1 dose escalation clinical study: safety and tolerability; format: in vivo, human
# Description: Although the primary objectives of the dose escalation part of the study were to determine the Recommended Phase II Dose (RP2D) and safety profile, secondary objectives included determining the PK profile, however effective treatment of patients with a range of refractory cancers has also been observed as part of this study.
# NUC-1031 was administered as a 5 to 30 minute intravenous slow bolus injection. • Schedule A: NUC-1031 was administered on days 1, 8, 15 of a 4 weekly Cycle. • Schedule B: NUC-1031 was administered on days 1, 5, 8, 12, 15, 19, of a 4 weekly Cycle.
substance,measurement,setting,value
gemcitabine-[phenyl-benzoxy-L-alaninyl)]-phosphate [NUC-1031],CD34^+/CD123^+ leukaemic stem cell viability as compared to gemcitabine,[1]; 1 µM and 2.5 µM,significant reductions
same,depletion of CSCs (CD34^+/CD123^+ cells) compared with gemcitabine,"[1]; AML blast cultures, micromolar concentrations",enhanced ability to deplete CSCs; also recorded: preferentially depletes CD34^+/CD123^+ cells
same,targeting of CSCs compared with Gemcitabine,[2],preferential targeting of CSCs
same,Adverse events (grade) / tolerability,"[3]; Patient 004, breast cancer, 500 mg/m^2 weekly",tolerated treatment well
same,Adverse events (grade) / tolerability,"[3]; Patient 005, ovarian cancer, 500 mg/m^2 weekly",tolerated treatment well
same,Adverse events (grade) / tolerability,"[3]; Patient 007, colorectal cancer, possible linked to splenomegaly at baseline",thrombocytopaenia (G3)
same,Adverse events (grade) / tolerability,"[3]; Patient 008, cancer of unknown primary, 375 mg/m^2 twice weekly, pleural effusion unlikely related to study drug",transient (G3) transaminitis (ALT and AST); also recorded: pleural effusion (G3)
same,Adverse events (grade) / tolerability,"[3]; Patient 010, endometrial cancer, neutropenia in Cycle 1 at 750 mg/m^2",neutropenia (G3); also recorded: transient Grade 3 anaemia
same,Adverse events (grade) / tolerability,"[3]; Patient 011, uterine carcinosarcoma, 375 mg/m^2 twice weekly",transient neutropaenia (G3); also recorded: low haemoglobin (G2)
same,Adverse events (grade) / tolerability,"[3]; Patient 012, cholangiocarcinoma",tolerated treatment well
same,Adverse events (grade) / tolerability,"[3]; Patient 015, cancer of unknown primary, Cycle 1 Day 8",thrombocytopenia (G3); also recorded: lymphopenia (G3); also recorded: neutropenia (G2)
same,Adverse events (grade) / tolerability,"[3]; Patient 017, lung cancer",tolerated NUC-1031 well
same,Adverse events (grade) / tolerability,"[3]; Patient 021, fallopian tube cancer, 625 mg/m^2 weekly",tolerated NUC-1031 well
same,Adverse events (grade) / tolerability,"[3]; Patient 027, ovarian cancer, ALT after Cycle 1 Day 1 at 725 mg/m^2, a DLT",elevated ALT (G3); also recorded: mild neutropenia
same,ALT,"[3]; Patient 027, ovarian cancer, day 7, from 96 at baseline",256
same,Adverse events (grade) / tolerability,"[3]; Patient 030, ovarian cancer, 725 mg/m^2 weekly",tolerated study drug well
same,Adverse events (grade) / tolerability,"[3]; Patient 036, renal carcinoma, 825 mg/m^2 weekly, thrombocytopenia following Cycle 5 Day 1",thrombocytopenia (G3); also recorded: tolerating NUC-1031 much better than their previous regimen
same,Adverse events (grade) / tolerability,"[3]; Patient 037, pancreatic cancer, 1,000, then 900 mg/m^2 weekly","loss of appetite, severe fatigue"
same,Adverse events (grade) / tolerability,"[3]; Patient 038, ovarian cancer, 900 mg/m^2 weekly, main toxicity, days 3 to 4",delayed onset fatigue
same,Adverse events (grade) / tolerability,"[3]; Patient 040, cholangiocarcinoma, source was a stent blocked with tumour and a biliary tract cyst",infection (G3)
same,Adverse events (grade) / tolerability,"[3]; Patient 041, breast cancer, 900 mg/m^2 weekly, fatigue during Cycle 3, neutropenia after Cycle 1 Day 8 and Day 15",fatigue (G3); also recorded: neutropenia
same,Adverse events (grade) / tolerability,"[3]; Patient 042, cholangiocarcinoma, 900 mg/m^2 weekly, days 3-5",delayed onset fatigue (G2)
same,Adverse events (grade) / tolerability,"[3]; Patient 043, ovarian cancer, 900 mg/m^2 weekly, fatigue on days 4 and 5",delayed onset fatigue (G2); also recorded: Leg oedema developed to G3
same,Adverse events (grade) / tolerability,"[3]; Patient 044, lung cancer, 900, then 825 mg/m^2 weekly",G3 lung infection; also recorded: thrombocytopenia
same,Adverse events (grade) / tolerability,"[3]; Patient 046, adrenal carcinoma, all G3 events in Cycle 1 at 1,000 mg/m^2, fatigue (G3) and neutropenia (G2) following Cycle 8 D1","delayed onset fatigue, nausea and vomiting (all G3); also recorded: neutropenia (G2)"
same,Adverse events (grade) / tolerability,"[3]; Patient 048, ovarian cancer, ALT, AST, neutropaenia (G2), ALP following Cycle 1 Day 1 at 1,000 mg/m^2, neutropenia (G3) in Cycle 4","ALT, (G3, a DLT); also recorded: AST and neutropaenia (G2); also recorded: ALP (G1); also recorded: neutropenia (G3); also recorded: diarrhoea following each dose"
same,Adverse events (grade) / tolerability,"[3]; Patient 050 (202), oesophageal cancer, following Cycle 1 Day 1 at 900 mg/m^2","ALT and fatigue, both G3"
same,Adverse events (grade) / tolerability,"[3]; Patient 051 (203), anal cancer, 900 mg/m^2 weekly",tolerated treatment well
same,Adverse events (grade) / tolerability,"[3]; Patient 055 (207), ovarian cancer, 825 mg/m^2 weekly",nausea and vomiting post chemotherapy
same,Adverse events (grade) / tolerability,"[3]; Patient 057 (209), ovarian cancer, Cycle 1 Day 15, 900 mg/m^2 weekly",anaemia and ascites both G3
same,Adverse events (grade) / tolerability,"[3]; Patient 058 (210), lung cancer, Cycle 1 at 825 mg/m^2, may be partly due to a congenital liver condition","G3 transaminitis (ALT), a DLT"
same,Adverse events (grade) / tolerability,"[3]; Patient 059 (211), cervical cancer, thrombocytopenia in Cycle 1 at 825 mg/m^2, fatigue during Cycle 3",thrombocytopenia (G3); also recorded: fatigue (G3)
same,Adverse events (grade) / tolerability,"[3]; Patient 060 (212), pancreatic cancer, 825 mg/m^2 weekly, required new stent","ALP, AST, ALT, all G3"
same,Adverse events (grade) / tolerability,"[3]; Patient 061 (213), colorectal cancer, 825 mg/m^2 weekly",no nausea or vomiting during treatment
same,Adverse events (grade) / tolerability,"[3]; Patient 063 (215), ovarian cancer, fatigue on Cycle 3",fatigue (G3); also recorded: anaemia and neutropenia
same,Adverse events (grade) / tolerability,"[3]; Patient 067 (219), osteosarcoma, 825 mg/m^2 weekly, neutropenia towards the end of each Cycle",neutropenia G2; also recorded: Tolerated study drug well
same,Adverse events (grade) / tolerability,"[3]; Patient 069 (221), colorectal cancer, G4/G3 during Cycle 3 at 825 mg/m^2, G3 following Cycle 4 D1 at 750, G2 at C5 D8","neutropenia (G4); also recorded: neutropenia and leukopenia, G3; also recorded: neutropenia and leukopenia, G2"
